ChEMBL document CHEMBL1201862, “PubChem BioAssay data set” (2004)
Calls of active or inactive are those of the source. For most assays here, no stated cut-off is given here; in the data, actives have a measured EC50 and inactives only a lower limit.

Assays:
[1] = HPDE-C7 pancreatic duct cell viability loss – fluorescence, HTS (AID 430); format: functional, cell-based; settings: Homo sapiens
[2] = viability loss of HPDE-C7K cells – cell-based, fluorescence, HTS, primary screen (AID 431); format: functional; settings: Homo sapiens
[3] = biological target: T1, Heat shock factor protein 1 (Mus musculus, UniProt P38532); test: enhancement of HSF1-driven luciferase signal – cell-based, NIH3T3, luminescence, dose retest, confirmation (AID 435004); format: functional;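 further: stress induced by proteasome inhibitor MG132 added 30 min after compound; luciferase reporter driven by HSF1 response element in NIH3T3 cells; actives raise luminescence as potentiators of the MG132 stress response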
T1 sequence (P38532 whole entry): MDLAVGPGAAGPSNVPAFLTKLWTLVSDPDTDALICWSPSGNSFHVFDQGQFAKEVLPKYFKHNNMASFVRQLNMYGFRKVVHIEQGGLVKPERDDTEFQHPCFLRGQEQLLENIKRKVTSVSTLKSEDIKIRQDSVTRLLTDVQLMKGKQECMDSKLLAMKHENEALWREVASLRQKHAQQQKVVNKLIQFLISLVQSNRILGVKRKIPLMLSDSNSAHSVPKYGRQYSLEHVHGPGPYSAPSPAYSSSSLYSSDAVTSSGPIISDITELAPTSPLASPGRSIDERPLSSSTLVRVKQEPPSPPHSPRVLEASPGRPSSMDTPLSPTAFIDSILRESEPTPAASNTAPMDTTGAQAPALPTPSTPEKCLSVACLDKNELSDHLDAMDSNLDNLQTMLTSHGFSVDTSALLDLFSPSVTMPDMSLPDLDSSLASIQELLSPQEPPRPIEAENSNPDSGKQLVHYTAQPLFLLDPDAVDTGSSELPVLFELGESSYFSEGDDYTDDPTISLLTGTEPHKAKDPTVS

[4] = biological target: T2, Replicative DNA helicase DnaB (Mycobacterium tuberculosis, UniProt P9WMR3); test: DnaB intein splicing inhibitors, dose response, biochemical, cell-free fluorescence (AID 449749); format: functional
T2 sequence (P9WMR3 whole entry): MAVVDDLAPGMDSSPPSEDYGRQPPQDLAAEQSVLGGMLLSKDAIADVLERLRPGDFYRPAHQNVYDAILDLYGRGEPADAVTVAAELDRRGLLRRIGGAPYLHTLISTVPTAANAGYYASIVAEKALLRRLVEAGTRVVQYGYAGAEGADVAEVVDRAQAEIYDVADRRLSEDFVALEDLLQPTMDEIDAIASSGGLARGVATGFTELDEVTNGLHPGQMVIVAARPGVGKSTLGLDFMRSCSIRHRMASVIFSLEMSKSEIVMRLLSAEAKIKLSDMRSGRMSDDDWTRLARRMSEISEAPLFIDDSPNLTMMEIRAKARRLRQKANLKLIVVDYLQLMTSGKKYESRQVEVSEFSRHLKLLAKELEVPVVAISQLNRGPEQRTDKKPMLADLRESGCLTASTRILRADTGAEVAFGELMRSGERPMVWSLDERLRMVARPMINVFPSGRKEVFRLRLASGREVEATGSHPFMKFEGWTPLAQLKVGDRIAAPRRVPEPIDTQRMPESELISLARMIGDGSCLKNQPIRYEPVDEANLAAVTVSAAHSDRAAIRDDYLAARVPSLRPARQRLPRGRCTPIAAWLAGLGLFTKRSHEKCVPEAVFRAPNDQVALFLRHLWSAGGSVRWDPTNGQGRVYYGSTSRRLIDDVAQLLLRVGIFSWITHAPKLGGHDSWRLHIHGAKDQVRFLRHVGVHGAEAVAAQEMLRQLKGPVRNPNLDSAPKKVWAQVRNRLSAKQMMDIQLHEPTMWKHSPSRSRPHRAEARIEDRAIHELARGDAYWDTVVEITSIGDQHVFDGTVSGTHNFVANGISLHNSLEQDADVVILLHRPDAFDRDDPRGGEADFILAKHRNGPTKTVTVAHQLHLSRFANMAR

Protein RecA = biological target: T3, Protein RecA (Mycobacterium tuberculosis, UniProt P9WHJ3); test: Fluorescence Cell-Free Homogeneous Dose Retest to Identify Inhibitors of RecA-Intein Splicing Activity. [Related pubchem assays (depositor defined):AID2097, AID2223, AID489010, AID492950]; format: functional
T3 sequence (P9WHJ3 whole entry): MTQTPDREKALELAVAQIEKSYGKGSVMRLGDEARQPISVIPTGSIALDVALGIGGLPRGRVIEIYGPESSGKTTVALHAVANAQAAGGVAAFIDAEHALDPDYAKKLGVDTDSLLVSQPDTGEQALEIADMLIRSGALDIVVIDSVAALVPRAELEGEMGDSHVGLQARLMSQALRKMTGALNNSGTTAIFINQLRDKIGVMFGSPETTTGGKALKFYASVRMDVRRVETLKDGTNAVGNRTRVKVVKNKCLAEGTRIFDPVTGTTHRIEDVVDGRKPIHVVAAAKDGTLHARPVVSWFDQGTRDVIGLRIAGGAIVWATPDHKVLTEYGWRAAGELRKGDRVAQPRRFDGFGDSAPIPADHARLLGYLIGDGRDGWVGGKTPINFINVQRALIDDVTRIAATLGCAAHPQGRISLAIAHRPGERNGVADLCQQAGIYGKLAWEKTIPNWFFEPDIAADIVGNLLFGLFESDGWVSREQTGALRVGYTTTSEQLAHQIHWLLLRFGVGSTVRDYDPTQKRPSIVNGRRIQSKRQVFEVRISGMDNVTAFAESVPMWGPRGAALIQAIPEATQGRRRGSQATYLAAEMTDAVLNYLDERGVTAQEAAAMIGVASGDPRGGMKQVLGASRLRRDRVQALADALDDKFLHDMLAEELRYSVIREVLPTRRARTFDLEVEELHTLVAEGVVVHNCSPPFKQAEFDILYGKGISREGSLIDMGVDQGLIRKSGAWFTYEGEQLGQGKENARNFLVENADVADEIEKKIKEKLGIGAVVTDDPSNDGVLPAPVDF

[5] = Luminescence Cell-Based Dose Response to Identify Activators of 5'UTR Stem-Loop Driven Prion Protein mRNA Translation in H4-C Neuroglioblastoma Cells. [Related pubchem assays: 1829 (Project Summary), 1814 (Primary HTS)]; format: functional
[6] = Luminescence Cell-Based Dose Confirmation HTS to Identify Activators of 5'UTR Stem-Loop Driven Alpha-Synuclein mRNA Translation in H4 Neuroglioblastoma Cells. [Related pubchem assays: 1829 (Project Summary), 1814 (Primary HTS)]; format: functional
[7] = Luminescence Cell-Based Dose Response HTS to Identify Activators of Luciferase Translation or Activity in H4 […] Cells. [Related pubchem assays: 1829 (Project Summary), 1814 (Primary HTS)]; format: functional
H4 = test: Luminescence Cell-Based Dose Response HTS to Identify Activators of 5'UTR Stem-Loop Driven Prion Protein mRNA Translation in H4 Neuroglioblastoma Cells. [Related pubchem assays: 1829 (Project Summary), 1814 (Primary HTS)]; format: functional; settings: Homo sapiens
[8] = Luminescence Cell-Based Dose Response to Identify Activators of Luciferase Translation or Activity in H4-C Neuroglioblastoma Cells. [Related pubchem assays: 1829 (Project Summary), 1814 (Primary HTS)]; format: functional
[9] = Luminescence Cell-Based Dose Confirmation to Identify Activators of 5'UTR Stem-Loop Driven Alpha-Synuclein mRNA Translation in H4 Neuroglioblastoma Cells. [Related pubchem assays: 1829 (Project Summary), 1814 (Primary HTS)]; format: functional
Protein Tat = biological target: T4, Protein Tat (Human immunodeficiency virus type 1 group M subtype B (isolate HXB2)(HIV-1), UniProt P04608); format: functional;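 further: tat binding to TAR RNA read out by fluorescence polarization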
T4 sequence (P04608 whole entry): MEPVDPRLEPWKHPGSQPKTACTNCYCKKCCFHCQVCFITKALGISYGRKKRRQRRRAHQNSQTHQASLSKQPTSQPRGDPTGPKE

[10] = HIV-1 Vif–A3G interaction blockers – biochemical, TR-FRET, GST-Vif 1-94, biotin-A3G peptide, dose response retest, primary screen (AID 1117319); format: functional;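 further: TR-FRET signal of purified GST-Vif binding a biotinylated A3G peptide; inhibitors lower the FRET signal by blocking Vif and A3G binding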

CC(C)(C)NC(=O)CSc1ncnc2c1nnn2Cc1ccccc1Cl
active: EC50 [1] 11.8 µM | EC50 [2] 14.1 µM | EC50 [3] 13.3 µM | AC50 [4] 6.8 µM | EC50 (Protein RecA) 8.37 µM

O=C(/C=C/c1ccco1)NC1=NCCS1
active: EC50 [5] 0.519 µM | EC50 [6] < 0.1 µM | EC50 [7] 0.484 µM | EC50 (H4) < 0.1 µM | EC50 [8] 0.323 µM | EC50 [9] 0.428 µM

Cc1ccn2cc(CNS(=O)(=O)c3ccc(Cl)s3)nc2c1
active: IC50 (Protein Tat) > 100 µM | IC50 [10] > 100 µM
